According to PMC8512817 (Molecules, 2021):
Several values for one entry are separate records, joined by “and”; a condition that tells them apart may be missing. Equal entries are not always repeated. Where two headings read alike, the source gives them in different places. Peptide text beside a SMILES is read from it.

Columns and labels:
Experiment in all cases: biochemical
A9UPE9 PDZ [1] = target: T1, A9UPE9 PDZ (Monosiga brevicollis, UniProt A9UPE9)
From the text: (§1) Starting with the HPV18 E6 C-terminal sequence, we designed a number of peptides to test specific peptide positions, including HPV16 E6, HPV18 E6, SRETTV, SRETDV, RRETTV, and RRETDV, where underlined residues differ from HPV18 E6. As a control, we also tested human SNX27, SHANK1, and GIPC PDZ targets previously studied, including GIRK3 (sequence: ESESKV), BPIX (WDETNL), GAIP (QSSSEA), TYRP1 (PNQSVV), and B1AR (ASESKV), as well as previously identified mbSHANK targets, including A9V7Z4 (EDETAL), A9UP44 (QSESRL), and A9UXE1 (QDETAL).
(§2) Figure 6 The binding isotherms from competition fluorescence polarization experiments of A9UPE9 (left, as labeled), and DLG1-1 (right, as labeled) PDZ domains are shown with the HPV18 E6 variant peptides SRETTV and SRETDV. The average values are shown, with error bars representing standard deviation from at least triplicate experiments.
(§3) Cells were lysed on ice using sonication.
(§4) Binding curves were visualized using Kaleidagraph.

DLG1-1 PDZ = DLG1-1 PDZ (Homo sapiens, UniProt Q12959)
From the text: as §1, §2, §3, §4

A9UPE9 PDZ [2] = target: T1, A9UPE9 PDZ; conditions: fluorescence polarization
Method: Expression and purification of all human and M. brevicollis PDZ domains followed a similar protocol, as previously reported for mbSHANK1 PDZ [48, 54]. Briefly, N-terminal His-tagged versions of A9UPE9 PDZ (residues 7–98) and DLG1-1 PDZ (residues 220–317) with cleavable TEV sites were inserted into the pET28a+ vector by gene synthesis (GenScript) and expressed in Escherichia coli BL21 (DE3) cells. Cells were lysed on ice using sonication. The lysis buffer used was 50 mM Tris pH 8.5, 200 mM NaCl, 10 mM CaCl2, 10 mM MgCl2, 20% (w/v) glycerol, 50 mM imidazole pH 8.5, 0.25 mM TCEP, DNAse, and protease inhibitor cocktail. Immobilized metal-affinity chromatography, 5 mL HisTrap (GE Healthcare, now Cytiva), was used to purify proteins from the clarified supernatant. The wash buffer used was 25 mM imidazole pH 8.5, 25 mM Tris pH 8.5, 250 mM NaCl, 10% (v/v) glycerol, and 0.25 mM TCEP, and the elution buffer was 400 mM imidazole pH 8.5, 25 mM Tris pH 8.5, 50 mM NaCl, 10% (v/v) glycerol, and 0.25 mM TCEP. Except for the protein used in binding experiments, the protein was then dialyzed in dialysis/gel filtration buffer (25 mM Tris pH 8.5, 150 mM NaCl, 10% (w/v) glycerol, 0.5 mM TCEP) and incubated at 4 °C overnight with TEV protease to cleave off the His-tag. The cleaved protein was then purified using a second nickel column with the wash and elution buffers described above. All proteins were further purified on a Superdex S75 column (Cytiva), using gel filtration buffer. Proteins were concentrated using Amicon centrifugal concentrators (3 MWCO). Concentrated proteins used in fluorescence polarization assays were flash frozen in liquid nitrogen for storage at −80 °C. The extinction coefficient values used for quantification of the proteins at A280 were 1490 cm^−1·M^−1 (A9UPE9) and 4470 cm^−1·M^−1 (DLG1-1).
Fluorescence polarization assays were conducted, as previously described [12, 45, 46, 48, 54, 60]. […] Competition experiments were performed in at least triplicate, and binding affinities were determined using SOLVER, as previously described [12, 45, 46, 48, 54, 60].

[3] = KI Values (μM) A9UPE9 PDZ, Table 3, competition FP, reporter 30 nM F*-HPV18 E6, 10.5 μM protein, at least triplicate, fitted with SOLVER

T1 sequence (A9UPE9 7-98): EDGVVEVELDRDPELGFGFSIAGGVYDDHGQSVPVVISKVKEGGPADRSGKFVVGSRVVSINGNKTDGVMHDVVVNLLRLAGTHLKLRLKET
Sequence of DLG1-1 PDZ (Q12959 220-317): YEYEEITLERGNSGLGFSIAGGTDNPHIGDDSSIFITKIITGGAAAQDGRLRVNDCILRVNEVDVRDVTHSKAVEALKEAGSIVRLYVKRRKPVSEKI

SMILES	Ki (A9UPE9 PDZ [1]; [3])	also measured
CC(C)C[C@H](NC(=O)[C@H](CC(N)=O)NC(=O)[C@@H](NC(=O)[C@H](CCC(=O)O)NC(=O)[C@H](CC(=O)O)NC(=O)[C@@H](N)Cc1c[nH]c2ccccc12)[C@@H](C)O)C(=O)O [BPIX] (H-WDETNL-OH)	330 ± 160 µM	Ki (DLG1-1 PDZ): 460 ± 140 µM
CC[C@H](C)[C@H](NC(=O)[C@@H](N)C(C)C)C(=O)N[C@@H](C)C(=O)N[C@H](C(=O)N[C@@H](CCC(=O)O)C(=O)N[C@H](C(=O)O)C(C)C)[C@@H](C)O [DLL1/DLL4] (H-VIATEV-OH)		Ki (A9UPE9 PDZ [1]): 240 ± 40 µM
CC(C)C[C@H](NC(=O)[C@H](CCCNC(=N)N)NC(=S)Nc1ccc2c(c1)C(=O)OC21c2ccc(O)cc2Oc2cc(O)ccc21)C(=O)N[C@@H](CCC(N)=O)C(=O)N[C@@H](CCCNC(=N)N)C(=O)N[C@@H](CCCNC(=N)N)C(=O)N[C@@H](CCCNC(=N)N)C(=O)N[C@@H](CCC(=O)O)C(=O)N[C@H](C(=O)N[C@@H](CCC(N)=O)C(=O)N[C@H](C(=O)O)C(C)C)[C@@H](C)O [F*-HPV18 E6]		Kd (A9UPE9 PDZ [2]; 30 nM reporter peptide, triplicate experiments): 6.9 µM and < 10 µM
CC(C)C[C@H](NC(=O)[C@H](CCC(N)=O)NC(=O)[C@@H](NC(=O)[C@H](CCC(=O)O)NC(=O)[C@H](CCCNC(=N)N)NC(=O)[C@H](CCCNC(=N)N)NC(=O)[C@@H](NC(=O)[C@H](CCCNC(=N)N)NC(=O)[C@H](CO)NC(=O)[C@H](CO)NC(=S)Nc1ccc2c(c1)C(=O)OC21c2ccc(O)cc2Oc2cc(O)ccc21)[C@@H](C)O)[C@@H](C)O)C(=O)O [FITC-SSRTRRETQL]		Kd (A9UPE9 PDZ [2]; duplicate experiments): 19.5 ± 1.8 µM
C[C@H](NC(=O)[C@H](CCC(=O)O)NC(=O)[C@H](CO)NC(=O)[C@H](CO)NC(=O)[C@H](CO)NC(=O)[C@@H](N)CCC(N)=O)C(=O)O [GAIP] (H-QSSSEA-OH)	> 1000 µM	
CC(C)[C@H](NC(=O)[C@H](CCCCN)NC(=O)[C@H](CO)NC(=O)[C@H](CCC(=O)O)NC(=O)[C@H](CO)NC(=O)[C@@H](N)CCC(=O)O)C(=O)O [GIRK3] (H-ESESKV-OH)	> 1000 µM	
CC(C)C[C@H](NC(=O)[C@H](CCC(N)=O)NC(=O)[C@@H](NC(=O)[C@H](CCC(=O)O)NC(=O)[C@H](CCCNC(=N)N)NC(=O)[C@H](CCCNC(=N)N)NC(=O)[C@@H](NC(=O)[C@H](CCCNC(=N)N)NC(=O)[C@H](CO)NC(=O)[C@@H](N)CO)[C@@H](C)O)[C@@H](C)O)C(=O)O [HPV16 E6]	66 ± 24 µM	
CC(C)C[C@H](NC(=O)[C@@H](N)CCCNC(=N)N)C(=O)N[C@@H](CCC(N)=O)C(=O)N[C@@H](CCCNC(=N)N)C(=O)N[C@@H](CCCNC(=N)N)C(=O)N[C@@H](CCCNC(=N)N)C(=O)N[C@@H](CCC(=O)O)C(=O)N[C@H](C(=O)N[C@@H](CCC(N)=O)C(=O)N[C@H](C(=O)O)C(C)C)[C@@H](C)O [HPV18 E6]	16 ± 1 µM	
CC(C)C[C@H](NC(=O)[C@H](CCCNC(=N)N)NC(=O)[C@H](CO)NC(=O)[C@H](CCC(=O)O)NC(=O)[C@H](CO)NC(=O)[C@@H](N)CCC(N)=O)C(=O)O [Peptide A9UP44] (H-QSESRL-OH)	64 ± 35 µM	
CC(C)[C@H](NC(=O)[C@H](CO)NC(=O)[C@H](CO)NC(=O)[C@H](CCC(=O)O)NC(=O)[C@H](CO)NC(=O)CN)C(=O)O [Peptide A9UWP5_MONVE] (H-GSESSV-OH)		Ki (A9UPE9 PDZ [1]): 490 ± 110 µM
CC(C)C[C@H](NC(=O)[C@H](C)NC(=O)[C@@H](NC(=O)[C@H](CCC(=O)O)NC(=O)[C@H](CC(=O)O)NC(=O)[C@@H](N)CCC(N)=O)[C@@H](C)O)C(=O)O [Peptide A9UXE1] (H-QDETAL-OH)	460 ± 210 µM	
CC(C)[C@H](NC(=O)[C@@H](NC(=O)[C@H](CO)NC(=O)[C@H](CCC(=O)O)NC(=O)[C@H](CCCNC(=N)N)NC(=O)[C@@H](N)Cc1c[nH]cn1)[C@@H](C)O)C(=O)O [Peptide A9V6G5_MONBE] (H-HRESTV-OH)		Ki (A9UPE9 PDZ [1]): < 100 µM and 97 µM
CC(C)C[C@H](NC(=O)[C@H](C)NC(=O)[C@@H](NC(=O)[C@H](CCC(=O)O)NC(=O)[C@H](CC(=O)O)NC(=O)[C@@H](N)CCC(=O)O)[C@@H](C)O)C(=O)O [Peptide A9V7Z4] (H-EDETAL-OH)	580 ± 160 µM	Ki (DLG1-1 PDZ): 460 ± 190 µM
CC(C)[C@H](NC(=O)[C@H](CCCCN)NC(=O)[C@H](CO)NC(=O)[C@H](CCC(=O)O)NC(=O)[C@H](CO)NC(=O)[C@H](C)N)C(=O)O [Peptide B1AR] (H-ASESKV-OH)	95 ± 30 µM	
CC(C)[C@H](NC(=O)[C@@H](NC(=O)[C@H](CO)NC(=O)[C@H](CCC(N)=O)NC(=O)[C@H](CC(N)=O)NC(=O)[C@@H]1CCCN1)C(C)C)C(=O)O [TYRP1] (H-PNQSVV-OH)	97 ± 24 µM	
